Results published in US6903079B2, “Nucleoside compounds and compositions thereof” (Inotek Pharmaceuticals Corporation, priority 2000, dated 2005).
Read-outs that look alike come from different tables or passages of the source.

How the values were obtained:
[1] = molecular target: T1, poly (ADP-ribose) synthetase (PARS) (Mus musculus, UniProt P11103); assay: Peroxynitrite-induced PARS activation and cell injury in J774 macrophages; type: cell-based; conditions: J774 macrophages exposed to peroxynitrite
T1 construct: endogenous in cells; host or cells: J774 macrophages
T1 sequence (P11103 whole entry): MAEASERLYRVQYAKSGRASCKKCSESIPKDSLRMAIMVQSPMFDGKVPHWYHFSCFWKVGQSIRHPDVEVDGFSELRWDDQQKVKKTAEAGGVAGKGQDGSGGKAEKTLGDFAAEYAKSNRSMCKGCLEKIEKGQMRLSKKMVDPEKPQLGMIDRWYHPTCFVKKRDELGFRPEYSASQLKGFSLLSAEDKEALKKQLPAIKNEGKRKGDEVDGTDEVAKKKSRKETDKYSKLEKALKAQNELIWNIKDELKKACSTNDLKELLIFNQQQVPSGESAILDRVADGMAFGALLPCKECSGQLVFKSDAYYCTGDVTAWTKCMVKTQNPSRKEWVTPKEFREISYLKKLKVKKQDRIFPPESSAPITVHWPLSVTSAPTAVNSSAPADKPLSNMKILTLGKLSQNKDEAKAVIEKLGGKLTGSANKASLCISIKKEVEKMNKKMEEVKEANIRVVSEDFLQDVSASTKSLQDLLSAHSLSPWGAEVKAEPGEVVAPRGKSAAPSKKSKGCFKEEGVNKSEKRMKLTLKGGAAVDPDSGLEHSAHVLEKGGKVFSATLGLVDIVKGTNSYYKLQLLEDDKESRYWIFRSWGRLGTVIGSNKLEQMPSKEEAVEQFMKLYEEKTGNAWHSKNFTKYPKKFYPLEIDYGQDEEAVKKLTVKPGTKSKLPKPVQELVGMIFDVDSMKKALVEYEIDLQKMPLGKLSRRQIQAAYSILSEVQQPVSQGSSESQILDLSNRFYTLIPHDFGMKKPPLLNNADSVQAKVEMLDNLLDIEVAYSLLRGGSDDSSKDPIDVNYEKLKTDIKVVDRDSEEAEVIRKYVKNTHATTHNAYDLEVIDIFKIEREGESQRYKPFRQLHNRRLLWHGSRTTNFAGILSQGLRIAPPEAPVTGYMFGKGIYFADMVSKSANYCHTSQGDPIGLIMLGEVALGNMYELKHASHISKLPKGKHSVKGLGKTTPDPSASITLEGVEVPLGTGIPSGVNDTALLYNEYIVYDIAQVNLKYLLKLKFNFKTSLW
Excerpt: In in vitro studies, J774 macrophages were exposed to peroxynitrite to induce activation of PARS and related cell injury.

PARS = PARS (Mus musculus, UniProt P11103); assay: PARS inhibition by nucleoside derivatives (in vitro inflammation models); type: cell-based
Chain of PARS (P11103 whole entry): as above
Excerpt: For example, conjugates of adenosine derivatives were investigated for PARS inhibition.

[2] = tested on: endotoxin-induced lethality in a mouse model; assay: Endotoxin-induced lethality (systemic inflammation); type: in vivo
Description: The compounds were given as oral gavage at 10 mg/kg, twice a day.

[3] = tested on: rat model of middle cerebral artery occlusion/reperfusion; assay: Middle cerebral artery occlusion/reperfusion; type: in vivo; conditions: 2 h occlusion, 24 h reperfusion, 10 mg/kg i.v. then 10 mg/kg/h, tetrazolium staining
Description: Occlusion lasted for 2 hours, followed by reperfusion for 24 hours. Infarct size was quantified with tetrazolium staining and survival and neurological scores were monitored. The compounds were administered at 10 mg/kg i.v. 5 min before the start of reperfusion in one group, and continued at a rate of 10 mg/kg/h infusion during the reperfusion. Vehicle-treated animals (control) developed a >50% mortality over 24 hours, whereas <10% of the animals died in the drug treated groups. The compounds tested reduced the size of brain infarction by 64±2 and 57±3%, respectively.

[4] = tested on: mouse model of gut ischemia-reperfusion; assay: Gut ischemia-reperfusion by ligation and release of superior mesenteric artery; FD4 gut permeability in everted gut sacks; conditions: 10 mg/kg i.v. 10 min prior to reperfusion
Description: In order to examine the efficacy of the compounds of the invention in ischemia-reperfusion conditions, the effect of selected compounds in a local model of reperfusion injury was examined. […] The artery was occluded for 45 min, followed by reperfusion for 1 h. Following the end of the reperfusion, gut permeability was measured with the fluorescein isothiocyanate-conjugated dextran (FD4) method in everted gut sacks.
The artery was occluded for 45 min, followed by reperfusion for 1 h. Following the end of the reperfusion, gut permeability was measured with the FD4 method in everted gut sacks.

[5] = 10 μM, Table 3 parent/reference compounds, read-out: INHIBITION at 10 μM
[6] = 10 μM, values marked *, asterisk not explained, read-out: Inhibition at 10 μM (values marked *)

Compound	inhibition at 10 µM (PARS; read-out: Inhibition at 10 μM) [%]	inhibition at 100 µM (PARS; read-out: Inhibition at 100 μM) [%]	other results
3-N-chloroacetyl-2,3-dihydro-1H-isoindol-1-one [Compound 5]			% Inhibition (10 μM) [1]: 29%
O=C(O)CCn1ccc2c1CCCC2=O [C, reference compound]			inhibition at 10 µM (PARS; [5]): 4%
O=C1NCc2ccccc21 [Compound 1]			inhibition at 10 µM [1]: 33%; inhibition at 10 µM (PARS; [5]): 33%
O=C1NCc2c(F)cccc21 [Compound 2]			inhibition at 10 µM [1]: 27%
O=C1NCc2c1cccc2[N+](=O)[O-] [Compound 3, 4-nitro-2,3-dihydro-1H-isoindol-1-one]			inhibition at 10 µM [1]: 12%
Nc1cccc2c1CNC2=O [Compound 4, 4-amino-2,3-dihydro-1H-isoindol-1-one]			inhibition at 10 µM [1]: 27%; inhibition at 10 µM (PARS; [5]): 27%
CN1CCN(CCC(=O)Nc2cccc3c2CNC3=O)CC1 [Compound 9, 4-N-(N-methylpiperazine)propylamido-2,3-dihydro-1H-isoindol-1-one]			% Inhibition (10 μM) [1]: 59%
CN1CCN(CCCC(=O)Nc2cccc3c2CNC3=O)CC1 [Compound 10, 4-N-(N-methylpiperazine)butylamido-2,3-dihydro-1H-isoindol-1-one]			% Inhibition (10 μM) [1]: 35%
O=C1NCc2c(O)cccc21 [Compound 27, 4-hydroxy-2,3-dihydro-1H-isoindol-1-one]			inhibition at 10 µM [1]: 60%
COc1cccc2c1CNC2=O [Compound 28]			inhibition at 10 µM [1]: 64%
O=C(CCC(=O)N1CCc2ccccc2C1)Nc1cccc2c1CNC2=O [Compound 36, 4-N-(tetrahydroisoquinolinosuccinamido)-2,3-dihydro-1H-isoindol-1-one]			% Inhibition (10 μM) [1]: 64%
N=C(N)NCCC[C@H](N)C(=O)Nc1cccc2c1CNC2=O [Compound 42, 4-N-(arginyl)-2 ,3-dihydro-1H-isoindol-1-one]			% Inhibition (10 μM) [1]: 72%
O=C(O)CCC(=O)Nc1cccc2c1CNC2=O [Compound 55, 4-N-(succinyl)-2,3-dihydro-1H-isoindol-1-one]			% Inhibition (10 μM) [1]: 25%
O=C(CN1CCNCC1)Nc1cccc2c1CNC2=O [Compound 73]			inhibition at 10 µM [1]: 61%
Nc1ncnc2c1ncn2C1OC(CNC(=O)CC(=O)Nc2cccc3c2CNC3=O)C(O)C1O (stereo not shown) [Compound 101]	64	100	
Nc1ncnc2c1ncn2C1OC(CNC(=O)CCC(=O)Nc2cccc3c2CNC3=O)C(O)C1O (stereo not shown) [Compound 102]			inhibition at 10 µM (PARS; read-out: Inhibition at 10 μM, 10 μM): 100%; inhibition at 100 µM (PARS; read-out: Inhibition at 100 μM, 100 μM): 100%
Nc1ncnc2c1ncn2C1OC(CNC(=O)CCCCCC(=O)Nc2cccc3c2CNC3=O)C(O)C1O (stereo not shown) [Compound 105]	66	100	
Nc1ncnc2c1ncn2C1OC(CNC(=O)CCCCCCC(=O)Nc2cccc3c2CNC3=O)C(O)C1O (stereo not shown) [Compound 106]			inhibition at 10 µM (PARS; 10 μM): 98; inhibition at 100 µM (PARS; 100 μM): 100
Nc1ncnc2c1ncn2C1OC(CNC(=O)CCCCCCCC(=O)Nc2cccc3c2CNC3=O)C(O)C1O (stereo not shown) [Compound 107]	62	100	
Nc1ncnc2c1ncn2C1OC(CNC(=O)CCCCCCCCC(=O)Nc2cccc3c2CNC3=O)C(O)C1O (stereo not shown) [Compound 108]	34	74	
CC1(C)OC2C(CNC(=O)CCC(=O)Nc3cccc4c3CNC4=O)OC(n3cnc4c(N)ncnc43)C2O1 (stereo not shown) [Compound 109]	29	60	
CC1(C)OC2C(CNC(=O)CCCC(=O)Nc3cccc4c3CNC4=O)OC(n3cnc4c(N)ncnc43)C2O1 (stereo not shown) [Compound 110]	29	64	
Nc1ncnc2c1ncn2C1OC(CNC(=O)C(O)C(O)C(=O)Nc2cccc3c2CNC3=O)C(O)C1O (stereo not shown) [Compound 111]	75	100	
Nc1ncnc2c1ncn2C1OC(CNC(=O)C(F)(F)C(F)(F)C(F)(F)C(=O)Nc2cccc3c2CNC3=O)C(O)C1O (stereo not shown) [Compound 113]	55	85	
Nc1ncnc2c1ncn2C1OC(CNC(=O)COCC(=O)Nc2cccc3c2CNC3=O)C(O)C1O (stereo not shown) [Compound 114]	56	100	

Compound	inhibition at 10 µM (PARS; read-out: Inhibition at 10 μM) [%]	inhibition at 100 µM (PARS; read-out: Inhibition at 100 μM) [%]	other results
Nc1ncnc2c1ncn2[C@@H]1OC(CNC(=O)c2c(F)ccc(F)c2C(=O)Nc2cccc3c2CNC3=O)[C@@H](O)[C@H]1O (stereo partly shown) [Compound 115]	0	34	
Nc1ncnc2c1ncn2[C@@H]1OC(CNC(=O)c2cc(Cl)c(Cl)cc2C(=O)Nc2cccc3c2CNC3=O)[C@@H](O)[C@H]1O (stereo partly shown) [Compound 116]	0	55	
Nc1ncnc2c1ncn2[C@@H]1OC(CNC(=O)/C=C/c2ccc(C(=O)Nc3cccc4c3CNC4=O)cc2)[C@@H](O)[C@H]1O (stereo partly shown) [Compound 118]	31.3	51.4	
Nc1ncnc2c1ncn2C1OC(CNCC(=O)Nc2cccc3c2CNC3=O)C(O)C1O (stereo not shown) [Compound 119]	25	58	
Nc1ncnc2c1ncn2C1OC(CNC(=O)CNC(=O)Nc2cccc3c2CNC3=O)C(O)C1O (stereo not shown) [Compound 120]	62	100	
Nc1ncnc2c1ncn2C1OC(CNC(=O)CC(O)CC(=O)Nc2cccc3c2CNC3=O)C(O)C1O (stereo not shown) [Compound 121]		81	inhibition at 10 µM (PARS; [6]): 13.3%
O=C(CCC(=O)Nc1cccc2c1CNC2=O)NCC1OC(n2cnc3c(NCC4CC4)ncnc32)C(O)C1O (stereo not shown) [Compound 122]			inhibition at 10 µM (PARS; [6]): 25%
CN(CC(=O)Nc1cccc2c1CNC2=O)C(=O)C1OC(n2cnc3c(N)ncnc32)C(O)C1O (stereo not shown) [Compound 123]			inhibition at 10 µM (PARS; [6]): 74%
CN(CCC(=O)Nc1cccc2c1CNC2=O)C(=O)C1OC(n2cnc3c(N)ncnc32)C(O)C1O (stereo not shown) [Compound 124]			protection against endotoxin-induced lethality [2]: protected against endotoxin-induced lethality; reduction of the size of brain infarction [3]: 64±2%; reduction of the increase in the permeability of the gut [4]: 72%
CN(CCCCCCCC(=O)Nc1cccc2c1CNC2=O)C(=O)C1OC(n2cnc3c(N)ncnc32)C(O)C1O (stereo not shown) [Compound 125]			inhibition at 10 µM (PARS; [6]): 70%
CCN(CC(=O)Nc1cccc2c1CNC2=O)C(=O)C1OC(n2cnc3c(N)ncnc32)C(O)C1O (stereo not shown) [Compound 126]			inhibition at 10 µM (PARS; [6]): 67.1%
CCN(CCC(=O)Nc1cccc2c1CNC2=O)C(=O)C1OC(n2cnc3c(N)ncnc32)C(O)C1O (stereo not shown) [Compound 127]			inhibition at 10 µM (PARS; [6]): 89%
Nc1ncnc2c1ncn2C1OC(C(=O)NCC(=O)Nc2cccc3c2CNC3=O)C(O)C1O (stereo not shown) [Compound 128]			inhibition at 10 µM (PARS; [6]): 83.2%
Nc1ncnc2c1ncn2C1OC(C(=O)NCCC(=O)Nc2cccc3c2CNC3=O)C(O)C1O (stereo not shown) [Compound 129]			inhibition at 10 µM (PARS; [6]): 77.4%
Nc1ncnc2c1ncn2C1OC(CNC(=O)CCCCCCC(=O)Nc2cccc3c2CNC3=O)C(O)C1O (stereo not shown) [Compound 131]			inhibition at 10 µM (PARS; 10 μM): 36; inhibition at 100 µM (PARS; 100 μM): 68
O=C(CCC(=O)Nc1cccc2c1CNC2=O)NCC1OC(n2ccc(O)nc2=O)C(O)C1O (stereo not shown) [Compound 132]	61	83	
NC(=O)c1ccccc1-c1cccc(NC(=O)CCC(=O)NCC2OC(n3cnc4c(N)ncnc43)C(O)C2O)c1 (stereo not shown) [Compound 133]	5	69	
NC(=O)c1cccc(NC(=O)CCC(=O)NCC2OC(n3cnc4c(N)ncnc43)C(O)C2O)c1 (stereo not shown) [Compound 134]	52	73	
CC1(C)OC2C(CNC(=O)CCn3ccc4c3CCCC4=O)OC(n3cnc4c(N)ncnc43)C2O1 (stereo not shown) [Compound 135]	15	25	
Nc1ncnc2c1ncn2C1OC(CNC(=O)CCn2ccc3c2CCCC3=O)C(O)C1O (stereo not shown) [Compound 136]	32	42	
CC1(C)OC2C(CN3C(=O)c4ccccc4C3=O)OC(n3cnc4c(N)ncnc43)C2O1 (stereo not shown) [Compound 137]	21	40	
NCC1OC(n2cnc3c(N)ncnc32)C(O)C1O (stereo not shown) [Compound 139]		27	
Nc1ncnc2c1ncn2C1OC(C(=O)O)C(O)C1O (stereo not shown) [Compound 140]	14.2		
NC(=O)c1ccccc1-c1cccc(N)c1 [F, reference compound]			inhibition at 10 µM (PARS; [5]): 37%
Nc1ncnc2c1ncn2[C@@H]1O[C@H](CO)[C@@H](O)[C@H]1O [G, adenosine, reference compound]			PARS inhibitory activity (in words) (PARS): only modest activity; inhibition at 10 µM (PARS; [5]): 40%
